Test results published in patent publication US10082509B2 (priority 2013, dated 2018).
Entries after “also recorded” stand apart in the source; their conditions may differ. Read-outs that look alike come from different tables or passages of the source.

What was measured:
[1] = system: Legionella pneumophila; type: cell-based; conditions: for membrane labelling: FIG. 4; for labelling / metabolic incorporation: L. pneumophila strains, laboratory in vitro conditions, FIG. 7
[2] = system: P. aeruginosa (ATCC 9027); type: cell-based, Pseudomonas aeruginosa
[3] = system: E. coli K12 (MG1655); type: cell-based, Escherichia coli
[4] = system: L. gormanii, L. maceachernii, L. micdadei, L. anisa, L. feeli, L. jordanis, L. tucsonensis and L. bozemanii; type: cell-based, Legionella spp.

SMILES | membrane labelling ([1]; L. pneumophila strain of serogroup 7) | labelling / metabolic incorporation [1] | membrane fluorescence / metabolic incorporation of the azido chemical reporter into LPS ([1]; four L. pneumophila serogroup 1 strains (incl. Philadelphia, Paris, Lens), 4 mM, 12 hours, 37° C., FIG. 3) | membrane labelling ([1]; four L. pneumophila strains of serogroups 3, 4, 5, 6) | labelling / metabolic incorporation [2] | labelling / metabolic incorporation [3] | membrane fluorescence / metabolic incorporation [4]
CC(=O)N[C@H]1[C@H](O)[C@H](NC(C)=O)C(O)O[C@@H]1CN=[N+]=[N-] (some centres unmarked) | absence of labelling | efficiently labelled | highly distinctive fluorescence on their membrane | very bright membrane labelling | not incorporated; also recorded: failed to show any labelling | not incorporated; also recorded: failed to show any labelling | not incorporated; also recorded: no membrane fluorescence was observed
CC(=O)NC1C(O)OC(CN=[N+]=[N-])[C@@H](NC(C)=O)[C@@H]1OC(C)=O (some centres unmarked) |  | not incorporated; also recorded: No labelling was observed |  |  |  |  | 
